Tests used:
[1] = tested on: kochia; assay: Test D preemergence; format: in vivo, Kochia scoparia
Description: (§1) Seeds of plant species selected from bluegrass (annual bluegrass, Poa annua), blackgrass (Alopecurus myosuroides), canarygrass (littleseed canarygrass, Phalaris minor), chickweed (common chickweed, Stellaria media), galium (catchweed bedstraw, Galium aparine), bromegrass, downy (downy bromegrass, Bromus tectorum), field poppy (Papaver rhoeas), field violet (Viola arvensis), green foxtail (Setaria viridis), deadnettle (henbit deadnettle, Lamium amplexicaule), Italian ryegrass (Lolium multiflorum), kochia (Kochia scoparia), lambsquarters (Chenopodium album), oilseed rape (Brassica napus), pigweed (Amaranthus retroflexus), chamomile (scentless chamomile, Matricaria inodora), Russian thistle (Salsola kali), speedwell (bird's-eye speedwell, Veronica persica), spring barley (Hordeum vulgare), spring wheat (Triticum aestivum), wild buckwheat (Polygonum convolvulus), wild mustard (Sinapis arvensis), wild oat (Avena fatua), wild radish (Raphanus raphanistrum), windgrass (Apera spica-venti), winter barley (Hordeum vulgare), and winter wheat (Triticum aestivum) were planted into a silt loam soil and treated preemergence with test chemicals formulated in a non-phytotoxic solvent mixture which included a surfactant.
(§2) At the same time, these species were planted in pots containing Redi-Earth® planting medium (Scotts Company, 14111 Scottslawn Road, Marysville, Ohio 43041) comprising spaghnum peat moss, vermiculite, wetting agent and starter nutrients and treated with postemergence applications of the test chemicals formulated in the same manner. Plants ranged in height from 2 to 18 cm (1- to 4-leaf stage). Treated plants and controls were maintained in a controlled growth environment for 7 to 21 days after which time all species were compared to controls and visually evaluated. Plant response ratings, summarized in Table D, are based on a scale of 0 to 100 where 0 is no effect and 100 is complete control. A dash (-) response means no test result.

[2] = tested on: galium; assay: Test D preemergence; format: in vivo, Galium aparine
Description: as §1, §2

[3] = tested on: wild radish; assay: Test D postemergence; format: in vivo, Raphanus raphanistrum
Description: as §1, §2

[4] = tested on: pigweed; assay: Test D preemergence; format: in vivo, Amaranthus retroflexus
Description: as §1, §2

[5] = tested on: wild oat; assay: Test D preemergence; format: in vivo, Avena fatua
Description: as §1, §2

[6] = tested on: chickweed; assay: Test D preemergence; format: in vivo, Stellaria media
Description: as §1, §2

[7] = tested on: deadnettle; assay: Test D postemergence; format: in vivo, Lamium amplexicaule
Description: as §1, §2

[8] = tested on: windgrass; assay: Test D postemergence; format: in vivo, Apera spica-venti
Description: as §1, §2

[9] = tested on: Italian ryegrass; assay: Test D preemergence; format: in vivo, Lolium multiflorum
Description: as §1, §2

[10] = tested on: wild radish; assay: Test D preemergence; format: in vivo, Raphanus raphanistrum
Description: as §1, §2

[11] = tested on: speedwell; assay: Test D postemergence; format: in vivo, Veronica persica
Description: as §1, §2

[12] = 16 g ai/ha, scale 0 (no effect) to 100 (complete control)
[13] = 31 g ai/ha, scale 0 to 100 (0 no effect, 100 complete control)
[14] = 62 g ai/ha, scale 0 to 100 (0 no effect, 100 complete control)
[15] = 125 g ai/ha, scale 0 to 100 (0 no effect, 100 complete control)
[16] = 250 g ai/ha, scale 0 to 100 (0 no effect, 100 complete control)
[17] = 31 g ai/ha, scale 0 (no effect) to 100 (complete control)

Clc1cnc(Oc2ccccc2-n2cc(Cl)cn2)nc1 [Compound 3]
Plant response rating, Kochia [1, 12]: 0 | Plant response rating, Kochia ([1]; 31 g ai/ha, scale 0-100): 30 | Plant response rating, Kochia ([1]; 62 g ai/ha, scale 0-100): 30 | Plant response rating, Kochia ([1]; 125 g ai/ha, scale 0-100): 30 | Plant response rating, Kochia ([1]; 250 g ai/ha, scale 0-100): 50 | Plant response rating, Galium [2, 12]: 0 | Plant response rating, Galium ([2]; 31 g ai/ha, scale 0-100): 0 | Plant response rating, Galium ([2]; 62 g ai/ha, scale 0-100): 10 | Plant response rating, Galium ([2]; 125 g ai/ha, scale 0-100): 70 | Plant response rating, Galium ([2]; 250 g ai/ha, scale 0-100): 100 | Plant response rating, Radish, Wild ([3]; 16 g ai/ha, scale 0-100): 70 | Plant response rating, Radish, Wild [3, 13]: 30 | Plant response rating, Radish, Wild [3, 14]: 40 | Plant response rating, Radish, Wild [3, 15]: 50 | Plant response rating, Radish, Wild [3, 16]: 75 | Plant response rating, Pigweed [4, 12]: 0 | Plant response rating, Pigweed [4, 17]: 0 | Plant response rating, Pigweed ([4]; 62 g ai/ha, scale 0-100): 40 | Plant response rating, Pigweed ([4]; 125 g ai/ha, scale 0-100): 80 | Plant response rating, Pigweed ([4]; 250 g ai/ha, scale 0-100): 100 | Plant response rating, Oat, Wild [5, 12]: 0 | Plant response rating, Oat, Wild ([5]; 31 g ai/ha, scale 0-100): 0 | Plant response rating, Oat, Wild ([5]; 62 g ai/ha, scale 0-100): 0 | Plant response rating, Oat, Wild ([5]; 125 g ai/ha, scale 0-100): 0 | Plant response rating, Oat, Wild ([5]; 250 g ai/ha, scale 0-100): 10 | Plant response rating, Chickweed [6, 12]: 0 | Plant response rating, Chickweed ([6]; 62 g ai/ha, scale 0-100): 0 | Plant response rating, Chickweed ([6]; 250 g ai/ha, scale 0-100): 90 | Plant response rating, Deadnettle ([7]; 16 g ai/ha, scale 0-100): 10 | Plant response rating, Deadnettle [7, 13]: 10 | Plant response rating, Deadnettle [7, 14]: 10 | Plant response rating, Deadnettle [7, 15]: 10 | Plant response rating, Deadnettle [7, 16]: 20 | Plant response rating, Windgrass ([8]; 16 g ai/ha, scale 0-100): 70 | Plant response rating, Windgrass [8, 13]: 0 | Plant response rating, Windgrass [8, 14]: 0 | Plant response rating, Windgrass [8, 15]: 0 | Plant response rating, Windgrass [8, 16]: 10 | Plant response rating, Ryegrass, Italian [9, 12]: 0 | Plant response rating, Ryegrass, Italian [9, 17]: 0 | Plant response rating, Ryegrass, Italian ([9]; 62 g ai/ha, scale 0-100): 0 | Plant response rating, Ryegrass, Italian ([9]; 125 g ai/ha, scale 0-100): 0 | Plant response rating, Ryegrass, Italian ([9]; 250 g ai/ha, scale 0-100): 0 | Plant response rating, Radish, Wild [10, 12]: 0 | Plant response rating, Radish, Wild [10, 17]: 20 | Plant response rating, Radish, Wild ([10]; 62 g ai/ha, scale 0-100): 60 | Plant response rating, Radish, Wild ([10]; 125 g ai/ha, scale 0-100): 90 | Plant response rating, Radish, Wild ([10]; 250 g ai/ha, scale 0-100): 95 | Plant response rating, Speedwell ([11]; 16 g ai/ha, scale 0-100): 60 | Plant response rating, Speedwell [11, 13]: 30 | Plant response rating, Speedwell [11, 14]: 45 | Plant response rating, Speedwell [11, 15]: 60 | Plant response rating, Speedwell [11, 16]: 75
